Measurements published in patent US20180339963A1, “ANTICONVULSANT CARBAMATE DERIVATIVES” (Yissum Research Development Company of the Hebrew …, priority 2017, published 2018).
pKi: −log10 of the molar value. Where two headings read alike, the source gives them in different places. Marks after values point to notes of the source that are not given here.

Columns and labels:
[1] = system: maximal electroshock seizure (MES); test: Maximal electroshock seizure (MES) test in mice; conditions: Mus musculus, ip; for responders at 30 mg/kg / responders at 100 mg/kg / responders at 300 mg/kg: read-out: MES, number of mice protected/number of mice tested
[2] = system: SWV mice; test: Teratogenicity in the SWV mouse model; type: in vivo; conditions: for No. of fetuses with NTDs / No. of implants / No. of live fetuses / No. of resorptions / Fetal weight mean ± SD: day 8.5 of gestation; for Fetal weight mean ± SD: in g (unit assumed); for No. of live fetuses, figure in parentheses / No. of resorptions, figure in parentheses: share of implants; for No. of fetuses with NTDs, figure in parentheses: share of live fetuses
Method: The teratogenic properties of the newly designed compounds (1-10) were evaluated in the highly inbred SWV mice strain known for its high susceptibility to VPA-induced neural tube defects (NTDs). Two month old nulligravid females, were mated overnight with males and examined for the presence of vaginal plugs the following morning, and the onset of gestation was considered to be 10 p.m. of the previous night, the midpoint of the dark cycle. At day 8.5 of gestation, each dam received a single i.p. injection of the test compounds in an equimolar dose of 0.9 or 1.8 mmol/kg and the control dams were injected with vehicle (25% water solution of Cremophore EL, Fluka Biochemica Germany). The volume of injection was 10 μL/g of body weight. […] At gestation day […], the dams were euthanized by carbon dioxide asphyxiation followed by cervical dislocation. After the opening the uterus, the location of all viable fetuses and resorption sites were recorded, and the fetuses were examined for the presence of exencephaly or other gross congenital abnormalities. The teratogenicity data (implantations, resorptions and NTDs) were evaluated for significant differences between the control and treated groups by analyzing the contingency table with Fisher's exact test. Statistical analysis was conducted using GraphPad InStat (version 3.06; GraphPad Software, San Diego, Calif., USA), and the results of all tests were considered to be statistically significant when the p-value was less than 0.05

[3] = in vivo; conditions: Sprague-Dawley, rat
[4] = system: corneal kindled mouse; test: Corneal kindled mouse (CKM) model; type: in vivo; conditions: ip, mice
[5] = system: mice; test: Neurotoxicity (minimal motor impairment, rotarod) in mice; conditions: mice i.p.
[6] = system: pentylenetetrazol-induced seizure (scMet); test: Subcutaneous metrazol seizure test (scMet) in rats
[7] = system: pentylenetetrazol-induced seizure (scMet); test: Subcutaneous metrazol seizure test (scMet) in mice; conditions: Mus musculus, ip, read-out: scMet-ED50
[8] = biological target: T1, hCA VII (Homo sapiens, UniProt P43166); test: Stopped flow CO2 hydrase assay, hCA VII; type: biochemical; conditions: mean from 3 assays, read-out: K1, hCA VII
T1 construct: made in house
T1 sequence (P43166 whole entry): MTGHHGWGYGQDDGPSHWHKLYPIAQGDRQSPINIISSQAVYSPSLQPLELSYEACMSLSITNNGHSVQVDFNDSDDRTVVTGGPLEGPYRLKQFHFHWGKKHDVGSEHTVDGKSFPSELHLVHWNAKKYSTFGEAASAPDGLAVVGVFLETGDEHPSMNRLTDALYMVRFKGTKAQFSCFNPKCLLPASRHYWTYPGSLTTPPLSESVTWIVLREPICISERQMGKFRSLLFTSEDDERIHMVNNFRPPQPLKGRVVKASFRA
Method: An Applied Photophysics stopped-flow instrument has been used for assaying the CA catalysed CO2 hydration activity. Phenol red (at a concentration of 0.2 mM) has been used as indicator, working at the absorbance maximum of 557 nm, with 20 mM Hepes (pH 7.5) as buffer, and 20 mM Na2SO4 (for maintaining constant the ionic strength), following the initial rates of the CA-catalyzed CO2 hydration reaction for a period of 10-100 s. The CO2 concentrations ranged from 1.7 to 17 mM for the determination of the kinetic parameters and inhibition constants. […] The uncatalyzed rates were determined in the same manner and subtracted from the total observed rates. Stock solutions of inhibitor (0.1 mM) were prepared in distilled-deionized water and dilutions up to 0.01 nM were done thereafter with the assay buffer. […] The inhibition constants were obtained by non-linear least-squares methods using PRISM 3 and the Cheng-Prusoff equation, as reported earlier and represent the mean from at least three different determinations. All CA isofoms were recombinant ones obtained in-house.

[9] = system: maximal electroshock seizure (MES); test: Maximal electroshock seizure (MES) test in rats; conditions: for ED50: Rattus norvegicus
[10] = system: 6 Hz psychomotor seizure; test: 6 Hz psychomotor seizure test in mice; conditions: Mus musculus, ip; for responders at 30 mg/kg / responders at 100 mg/kg / responders at 300 mg/kg: read-out: 6 Hz, number of mice protected/number of mice tested
[11] = in vivo; conditions: male, CF no. 1 albino, mouse, ip

## CCC(C)CCOC(=O)Nc1ccc(S(N)(=O)=O)cc1 (centres unmarked) [Compound 10, 3-methylpentyl(4-sulfamoylphenyl)carbamate]
[1]; 0.5 h
  responders at 30 mg/kg: 75%
  responders at 100 mg/kg: 100%
  responders at 300 mg/kg: 75%
[1]; 2 h
  responders at 30 mg/kg: 25%
  responders at 100 mg/kg: 100%
  responders at 300 mg/kg: 100%
[1]; read-out: MES-ED50, mice, i.p.
  ED50: 14 mg/kg
[2]
  induction of neural tube defects relative to anticonvulsant effective dose (in words): induced neural tube defects only at doses markedly exceeding their effective dose
[2]; single i.p. 0.9 mmol/kg
  No. of fetuses with NTDs: 9
  No. of implants: 145
  No. of live fetuses: 116
  No. of resorptions: 29
  Fetal weight mean ± SD: 0.88 ± 0.03
  No. of live fetuses, figure in parentheses: 80%
  No. of resorptions, figure in parentheses: 20%
  No. of fetuses with NTDs, figure in parentheses: (7.8)*
[2]; single i.p. 1.8 mmol/kg
  No. of fetuses with NTDs: 17
  No. of implants: 108
  No. of live fetuses: 56
  No. of resorptions: 52
  Fetal weight mean ± SD: 0.87 ± 0.08
  No. of live fetuses, figure in parentheses: 51.9%
  No. of resorptions, figure in parentheses: 48.2%
  No. of fetuses with NTDs, figure in parentheses: (30.4)*
[3]; ip
  TD50: > 250 mg/kg
[3]; male, po
  TD50: > 500 mg/kg
other
  melting point: 168 to 169 °C
[4]
  ED50: 59 mg/kg
[5]; 30 mg/kg, 0.5 h
  Tox (motor impairment or sedation), number of animals affected/number of animals tested: 1/8
[5]; 30 mg/kg, 2.0 h
  Tox (motor impairment or sedation), number of animals affected/number of animals tested: 0/8
[5]; 100 mg/kg, 0.5 h
  Tox (motor impairment or sedation), number of animals affected/number of animals tested: 0/8
[5]; 100 mg/kg, 2.0 h
  Tox (motor impairment or sedation), number of animals affected/number of animals tested: 0/8
[5]; 300 mg/kg, 0.5 h
  Tox (motor impairment or sedation), number of animals affected/number of animals tested: 1/8
[5]; 300 mg/kg, 2.0 h
  Tox (motor impairment or sedation), number of animals affected/number of animals tested: 0/8
[6]; Rattus norvegicus, po, read-out: scMet ED50
  ED50: > 250 mg/kg
[6]; rats, p.o.
  scMet ED50: inactive
[7]
  ED50: 70 mg/kg
[8]
  pKi: 6.46
[9]; ip, read-out: MES-ED50, rats, i.p.
  ED50: 13 mg/kg
[9]; po, read-out: MES-ED50, rats, p.o.
  ED50: 28 mg/kg
[9]; rats, p.o.
  MES-ED50: 23 mg/kg
[10]; 0.5 h
  responders at 30 mg/kg: 25%
  responders at 100 mg/kg: 75%
  responders at 300 mg/kg: 100%
[10]; 2 h
  responders at 30 mg/kg: 0%
  responders at 100 mg/kg: 50%
  responders at 300 mg/kg: 100%
[10]; read-out: 6 Hz (44 mA)-ED50, mice, i.p., 44 mA
  ED50: 88 mg/kg
[10]; read-out: 6 Hz-ED50, mice, i.p., 32 mA
  ED50: 80 mg/kg
[11]
  TD50: 698 mg/kg
